Earlier results, collected in patent US20050136114A1, “Taste masked pharmaceutical compositions comprising bitter drug and pH sensitive polymer” (COUNCIL OF SCIENTIFIC AND INDUSTRIAL RESEARCH, priority 2003, published 2005).

Experiments:
[1] = in presence of Eudragit E
[2] = oral, humans

- degradation [1]: significant degradation
- bioavailability [2]: 32-50%
Structure (SMILES): CO/N=C(\C(=O)N[C@@H]1C(=O)N2C(C(=O)OC(C)OC(C)=O)=C(COC(N)=O)CS[C@H]12)c1ccco1 (some centres unmarked) [cefuroxime axetil]
